Measured values taken from US8541002B2, “Vaccine for treatment and prevention of herpes simplex virus infection” (Agenus Inc., priority 2003, dated 2013).
Where no end group is shown, it is not given here.

Experiment: Turbidity assay for solubility of the peptides
Type: physicochemical
Conditions: solubility of the antigenic peptides in water or Dimethyl Sulfoxide (DMSO)
Description: A number of antigenic peptides of the invention were synthesized by chemical synthesis as described in Section 5.1.1.
A turbidity assay was used to assess the solubility of the peptides. Turbidity assays used either a Varian Cary double-beam spectrophotometer, or a Molecular Devices Spectromax absorbance plate reader (for high throughput experiments). The spectrophotometer assay read every 2 nm between 340 nm and 360 nm, and averaged the values. Samples were analyzed in duplicate using a quartz micro-cuvette that holds about 200 uL. The plate reader assay used a 96-well plate format that read every 4 nm between 340 nm and 360 nm and averaged those values. Samples in this assay were run in triplicate.
In the case of `CSCC[C@H](NC(=O)[C@@H]1CCCN1C(=O)CNC(=O)[C@H](C)NC(=O)CNC(=O)[C@H](CCCNC(=N)N)NC(=O)[C@H](CCCNC(=N)N)NC(=O)[C@@H](N)Cc1ccccc1)C(=O)N[C@@H](CCCNC(=N)N)C(=O)N[C@@H](C)C(=O)N[C@@H](CCCNC(=N)N)C(=O)N1CCC[C@H]1C(=O)N[C@@H](CCCNC(=N)N)C(=O)NCC(=O)N[C@@H](CCC(=O)O)C(=O)N[C@H](C(=O)N[C@@H](CCCNC(=N)N)C(=O)N[C@@H](Cc1ccccc1)C(=O)N[C@@H](CC(C)C)C(=O)N[C@@H](Cc1c[nH]cn1)C(=O)N[C@@H](Cc1ccc(O)cc1)C(=O)N[C@@H](CC(=O)O)C(=O)N[C@@H](CCC(=O)O)C(=O)N[C@@H](C)C(=O)NCC(=O)N[C@@H](Cc1ccc(O)cc1)C(=O)N[C@@H](C)C(=O)N[C@@H](CC(C)C)C(=O)N[C@@H](Cc1ccc(O)cc1)C(=O)N[C@@H](CCCNC(=N)N)C(=O)N[C@@H](CC(=O)O)C(=O)N[C@@H](CO)C(=O)N[C@@H](CO)C(=O)N[C@@H](CO)C(=O)N[C@@H](CC(=O)O)C(=O)O)C(C)C` [UL49-1], the Solubility is reported as “water”.
For “PQPPLPQPPLPQPPLPQPPLPPVTRTLTPQSRDSV [UL36-3]”, the Solubility was “water”.
For `CC[C@H](C)[C@H](NC(=O)[C@@H](NC(=O)[C@H](CC(=O)O)NC(=O)[C@H](CCCNC(=N)N)NC(=O)[C@H](C)N)C(C)C)C(=O)N[C@@H](CCCNC(=N)N)C(=O)N[C@@H](CCC(=O)O)C(=O)N[C@H](C(=O)N[C@@H](CC(=O)O)C(=O)N[C@@H](C)C(=O)N[C@@H](Cc1ccccc1)C(=O)N[C@@H](Cc1ccc(O)cc1)C(=O)NCC(=O)N[C@@H](CC(=O)O)C(=O)N[C@@H](CC(C)C)C(=O)N[C@@H](C)C(=O)N[C@@H](CC(=O)O)C(=O)N[C@@H](CC(C)C)C(=O)N[C@@H](CC(=O)O)C(=O)N[C@@H](CC(C)C)C(=O)N[C@@H](CCC(N)=O)C(=O)N[C@@H](CC(C)C)C(=O)N[C@@H](CCCNC(=N)N)C(=O)N[C@@H](C)C(=O)N[C@@H](C)C(=O)N1CCC[C@H]1C(=O)N1CCC[C@H]1C(=O)N[C@@H](C)C(=O)N[C@@H](CC(N)=O)C(=O)N[C@@H](CC(C)C)C(=O)N[C@@H](Cc1ccc(O)cc1)C(=O)N[C@@H](C)C(=O)N[C@@H](CCCNC(=N)N)C(=O)N[C@@H](CC(C)C)C(=O)NCC(=O)O)[C@@H](C)O` [UL36-4], the Solubility was “DMSO”.
With `CC[C@H](C)[C@H](NC(=O)[C@H](C)NC(=O)[C@H](CCC(=O)O)NC(=O)[C@H](CCCNC(=N)N)NC(=O)[C@H](CC(=O)O)NC(=O)[C@H](Cc1ccc(O)cc1)NC(=O)[C@H](CO)NC(=O)[C@@H]1CCCN1C(=O)[C@H](Cc1ccc(O)cc1)NC(=O)[C@H](CCCNC(=N)N)NC(=O)[C@H](CCCNC(=N)N)NC(=O)[C@H](CCC(N)=O)NC(=O)[C@H](Cc1ccc(O)cc1)NC(=O)[C@H](CCCCN)NC(=O)[C@@H](NC(=O)[C@@H](NC(=O)[C@H](CC(C)C)NC(=O)[C@@H](NC(=O)[C@H](Cc1ccc(O)cc1)NC(=O)[C@H](CCSC)NC(=O)[C@@H](NC(=O)[C@H](CC(N)=O)NC(=O)[C@H](Cc1c[nH]c2ccccc12)NC(=O)[C@H](CC(C)C)NC(=O)[C@H](CC(=O)O)NC(=O)[C@@H](NC(=O)[C@H](C)NC(=O)[C@@H](NC(=O)[C@@H]1CCCN1C(=O)[C@@H](NC(=O)[C@H](Cc1ccccc1)NC(=O)[C@H](Cc1ccc(O)cc1)NC(=O)CN)[C@@H](C)O)[C@@H](C)CC)C(C)C)C(C)C)[C@@H](C)O)C(C)C)C(C)C)C(=O)N[C@H](C(=O)N[C@@H](CC(C)C)C(=O)O)[C@@H](C)O` [UL41-3] the Solubility was “DMSO”.
With `CC[C@H](C)[C@H](NC(=O)[C@H](CC(=O)O)NC(=O)[C@H](CCCCN)NC(=O)[C@@H](NC(=O)[C@H](CC(=O)O)NC(=O)[C@H](CO)NC(=O)[C@H](CC(C)C)NC(=O)[C@H](CCCNC(=N)N)NC(=O)[C@H](CCCNC(=N)N)NC(=O)[C@H](CCCNC(=N)N)NC(=O)[C@H](CO)NC(=O)[C@H](CS)NC(=O)[C@H](CC(C)C)NC(=O)[C@H](CC(=O)O)NC(=O)[C@H](CC(=O)O)NC(=O)[C@@H](N)CC(C)C)[C@@H](C)CC)C(=O)N[C@@H](C)C(=O)N[C@@H](CO)C(=O)N[C@@H](Cc1ccccc1)C(=O)N[C@H](C(=O)N[C@@H](CC(C)C)C(=O)N[C@H](C(=O)N[C@H](C(=O)N[C@@H](CC(C)C)C(=O)N[C@@H](C)C(=O)N[C@@H](CCCNC(=N)N)C(=O)N[C@@H](CC(C)C)C(=O)N[C@@H](C)C(=O)N[C@@H](CC(N)=O)C(=O)N[C@@H](CCCNC(=N)N)C(=O)N[C@H](C(=O)N[C@@H](CCC(=O)O)C(=O)N[C@@H](CCCNC(=N)N)C(=O)NCC(=O)N[C@H](C(=O)O)C(C)C)C(C)C)[C@@H](C)CC)C(C)C)C(C)C` [UL54-2] the Solubility was “water”.
With “VTTAEFPRDPGQLLYIPKTYLLGRPRNASLPELPE [UL22-1]” the Solubility was “water”.
With “ATYLLNYAGRIVSSVFLQYPYTKITRLLCELSVQR [UL53-1]” the Solubility was “DMSO”.
In the case of `CC[C@H](C)[C@H](NC(=O)[C@H](Cc1ccc(O)cc1)NC(=O)[C@H](C)NC(=O)[C@H](Cc1ccc(O)cc1)NC(=O)CNC(=O)[C@H](CC(C)C)NC(=O)[C@H](C)NC(=O)[C@H](CCCNC(=N)N)NC(=O)[C@H](CC(C)C)NC(=O)[C@@H](NC(=O)[C@H](CCCNC(=N)N)NC(=O)[C@@H](NC(=O)[C@H](CS)NC(=O)[C@H](Cc1ccccc1)NC(=O)[C@H](CC(C)C)NC(=O)[C@H](Cc1c[nH]cn1)NC(=O)[C@H](C)NC(=O)[C@H](CC(C)C)NC(=O)[C@H](CCCNC(=N)N)NC(=O)[C@H](CC(C)C)NC(=O)[C@H](C)NC(=O)[C@@H]1CCCN1C(=O)[C@H](CCCCN)NC(=O)[C@H](CO)NC(=O)[C@@H]1CCCN1C(=O)[C@H](C)NC(=O)CNC(=O)[C@H](CO)NC(=O)[C@@H]1CCCN1C(=O)[C@H](C)NC(=O)[C@H](C)N)[C@@H](C)CC)C(C)C)C(=O)N[C@@H](CC(N)=O)C(=O)N[C@@H](CO)C(=O)NCC(=O)N[C@@H](CCC(N)=O)C(=O)O` [UL41-1], the Solubility is reported as “water”.
In the case of “DEVAPDHEAELYARVQRPGPVPDAEPIYDTVEGYA [UL10-5]”, the Solubility is reported as “water”.
In the case of `CSCC[C@H](NC(=O)[C@H](CC(C)C)NC(=O)[C@H](CC(N)=O)NC(=O)[C@H](CCC(=O)O)NC(=O)[C@H](CC(C)C)NC(=O)[C@H](CC(C)C)NC(=O)[C@@H](NC(=O)[C@@H]1CCCN1C(=O)[C@H](Cc1ccccc1)NC(=O)[C@H](CCCNC(=N)N)NC(=O)[C@H](CCCNC(=N)N)NC(=O)[C@@H](NC(=O)[C@@H](NC(=O)[C@H](CCC(=O)O)NC(=O)CNC(=O)[C@@H](N)CC(C)C)C(C)C)[C@@H](C)O)C(C)C)C(=O)N[C@@H](CCCNC(=N)N)C(=O)N[C@@H](C)C(=O)N[C@@H](CC(C)C)C(=O)N[C@@H](CCC(=O)O)C(=O)NCC(=O)N[C@H](C(=O)N[C@@H](C)C(=O)N1CCC[C@H]1C(=O)N[C@@H](CC(=O)O)C(=O)N[C@@H](C)C(=O)N[C@@H](Cc1ccccc1)C(=O)N[C@@H](Cc1ccccc1)C(=O)N[C@@H](Cc1c[nH]cn1)C(=O)N[C@H](C(=O)N[C@@H](C)C(=O)N[C@@H](Cc1ccc(O)cc1)C(=O)N[C@@H](C)C(=O)N[C@@H](CC(C)C)C(=O)N[C@@H](C)C(=O)O)[C@@H](C)O)[C@@H](C)O` [UL17-2], the Solubility is reported as “water”.
For “AGLPSPVPYAPLGSPDPSSPRQRTYVLPRVGIHNA [US10-1]”, the Solubility was “water”.
